From ChEMBL document CHEMBL1201862, “PubChem BioAssay data set” (2004)
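Protocol summary: plate cells (96-well), add compound at 5 concentrations, incubate 48 h, interpolate endpoints linearly. GI50: concentration for 50% inhibition of growth.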 Active and inactive are the calls of the source. No stated cut-off is given here; in the data, active = GI50 up to about 1.1 µM and inactive = higher.

Experiments:
Test in all cases: NCI-60 cell line screen, 48 h
SK-MEL-5 = tested on: SK-MEL-5
HOP-92 = tested on: HOP-92
OVCAR-3 = tested on: OVCAR-3
HOP-62 = tested on: HOP-62
IGROV-1 = tested on: IGROV-1
COLO 205 = tested on: COLO 205
LXFL 529 = tested on: LXFL 529
KM-20L2 = tested on: KM-20L2
SNB-19 = tested on: SNB-19
EKVX = tested on: EKVX
UO-31 = tested on: UO-31
786-0 = tested on: 786-0
RXF 631 = tested on: RXF 631
DLD-1 = tested on: DLD-1
OVCAR-8 = tested on: OVCAR-8
SK-OV-3 = tested on: SK-OV-3
UACC-62 = tested on: UACC-62
NCI-H522 = tested on: NCI-H522
TK-10 = tested on: TK-10
HCT-116 = tested on: HCT-116
UACC-257 = tested on: UACC-257
RPMI-8226 = tested on: RPMI-8226
M14 = tested on: M14
SK-MEL-28 = tested on: SK-MEL-28
HT-29 = tested on: HT-29
XF498 = tested on: XF498
CCRF-CEM = tested on: CCRF-CEM
SF-539 = tested on: SF-539
U-251 = tested on: U-251
SK-MEL-2 = tested on: SK-MEL-2
Malme-3M = tested on: Malme-3M
SNB-75 = tested on: SNB-75
NCI-H23 = tested on: NCI-H23
HL-60 = tested on: HL-60
A498 = tested on: A498
KM12 = tested on: KM12
NCI-H460 = tested on: NCI-H460
SF-268 = tested on: SF-268
OVCAR-4 = tested on: OVCAR-4
HOP-18 = tested on: HOP-18
ACHN = tested on: ACHN
DMS-273 = tested on: DMS-273
K562 = tested on: K562
DMS-114 = tested on: DMS-114
OVCAR-5 = tested on: OVCAR-5
SF-295 = tested on: SF-295
A549 = tested on: A549
HCC 2998 = tested on: HCC 2998
SNB-78 = tested on: SNB-78
HCT-15 = tested on: HCT-15
SW-620 = tested on: SW-620
MOLT-4 = tested on: MOLT-4
NCI-H226 = tested on: NCI-H226
SN12C = tested on: SN12C
CAKI-1 = tested on: CAKI-1
LOX IMVI = tested on: LOX IMVI
M19-MEL = tested on: M19-MEL

Nn1c(-c2cccc(Cl)c2)nc2ccccc2c1=O
GI50 (SK-MEL-5): > 100 µM (inactive)
GI50 (HOP-92): > 100 µM (inactive)
GI50 (OVCAR-3): > 100 µM (inactive)
GI50 (HOP-62): > 100 µM (inactive)
GI50 (IGROV-1): > 100 µM (inactive)
GI50 (COLO 205): > 100 µM (inactive)
GI50 (LXFL 529): > 100 µM (inactive)
GI50 (KM-20L2): > 100 µM (inactive)
GI50 (SNB-19): > 100 µM (inactive)
GI50 (EKVX): > 100 µM (inactive)
GI50 (UO-31): > 100 µM (inactive)
GI50 (786-0): > 100 µM (inactive)
GI50 (RXF 631): > 100 µM (inactive)
GI50 (DLD-1): > 100 µM (inactive)
GI50 (OVCAR-8): > 100 µM (inactive)
GI50 (SK-OV-3): > 100 µM (inactive)
GI50 (UACC-62): > 100 µM (inactive)
GI50 (NCI-H522): > 100 µM (inactive)
GI50 (TK-10): > 100 µM (inactive)
GI50 (HCT-116): > 100 µM (inactive)
GI50 (UACC-257): > 100 µM (inactive)
GI50 (RPMI-8226): > 100 µM (inactive)
GI50 (M14): > 100 µM (inactive)
GI50 (SK-MEL-28): > 100 µM (inactive)
GI50 (HT-29): > 100 µM (inactive)
GI50 (XF498): 23.5 µM (inactive)
GI50 (CCRF-CEM): 51.5 µM (inactive)
GI50 (SF-539): > 100 µM (inactive)
GI50 (U-251): > 100 µM (inactive)
GI50 (SK-MEL-2): > 100 µM (inactive)
GI50 (Malme-3M): > 100 µM (inactive)
GI50 (SNB-75): > 100 µM (inactive)
GI50 (NCI-H23): > 100 µM (inactive)
GI50 (HL-60): > 100 µM (inactive)
GI50 (A498): > 100 µM (inactive)
GI50 (KM12): > 100 µM (inactive)
GI50 (NCI-H460): > 100 µM (inactive)
GI50 (SF-268): > 100 µM (inactive)
GI50 (OVCAR-4): > 100 µM (inactive)
GI50 (HOP-18): 68.5 µM (inactive)
GI50 (ACHN): > 100 µM (inactive)
GI50 (DMS-273): > 100 µM (inactive)
GI50 (K562): > 100 µM (inactive)
GI50 (DMS-114): > 100 µM (inactive)
GI50 (OVCAR-5): > 100 µM (inactive)
GI50 (SF-295): > 100 µM (inactive)
GI50 (A549): > 100 µM (inactive)
GI50 (HCC 2998): > 100 µM (inactive)
GI50 (SNB-78): > 100 µM (inactive)
GI50 (HCT-15): > 100 µM
GI50 (SW-620): > 100 µM (inactive)
GI50 (MOLT-4): 60.1 µM (inactive)
GI50 (NCI-H226): > 100 µM (inactive)
GI50 (SN12C): > 100 µM (inactive)
GI50 (CAKI-1): > 100 µM (inactive)

COc1ccc(NC(=O)CC/C(CC(=O)c2ccco2)=N/NC(N)=S)cc1
GI50 (LOX IMVI): > 100 µM (inactive)
GI50 (HOP-92): > 100 µM (inactive)
GI50 (OVCAR-3): > 100 µM (inactive)
GI50 (HOP-62): > 100 µM (inactive)
GI50 (IGROV-1): > 100 µM (inactive)
GI50 (COLO 205): > 100 µM (inactive)
GI50 (LXFL 529): > 100 µM (inactive)
GI50 (KM-20L2): > 100 µM (inactive)
GI50 (SNB-19): > 100 µM (inactive)
GI50 (EKVX): > 100 µM (inactive)
GI50 (UO-31): > 100 µM (inactive)
GI50 (M19-MEL): > 100 µM (inactive)
GI50 (786-0): > 100 µM (inactive)
GI50 (RXF 631): > 100 µM (inactive)
GI50 (DLD-1): > 100 µM (inactive)
GI50 (OVCAR-8): > 100 µM (inactive)
GI50 (SK-OV-3): > 100 µM (inactive)
GI50 (UACC-62): > 100 µM (inactive)
GI50 (NCI-H522): > 100 µM (inactive)
GI50 (TK-10): > 100 µM (inactive)
GI50 (HCT-116): > 100 µM (inactive)
GI50 (UACC-257): > 100 µM (inactive)
GI50 (RPMI-8226): > 100 µM (inactive)
GI50 (M14): > 100 µM (inactive)
GI50 (HT-29): > 100 µM (inactive)
GI50 (XF498): > 100 µM (inactive)
GI50 (CCRF-CEM): > 100 µM (inactive)
GI50 (SF-539): > 100 µM (inactive)
GI50 (U-251): > 100 µM (inactive)
GI50 (SK-MEL-2): > 100 µM (inactive)
GI50 (Malme-3M): > 100 µM (inactive)
GI50 (NCI-H23): > 100 µM (inactive)
GI50 (HL-60): > 100 µM (inactive)
GI50 (A498): > 100 µM (inactive)
GI50 (KM12): > 100 µM (inactive)
GI50 (NCI-H460): > 100 µM (inactive)
GI50 (SF-268): > 100 µM (inactive)
GI50 (OVCAR-4): > 100 µM (inactive)
GI50 (HOP-18): > 100 µM (inactive)
GI50 (ACHN): > 100 µM (inactive)
GI50 (DMS-273): > 100 µM (inactive)
GI50 (K562): > 100 µM (inactive)
GI50 (DMS-114): > 100 µM (inactive)
GI50 (OVCAR-5): > 100 µM (inactive)
GI50 (SF-295): > 100 µM (inactive)
GI50 (A549): > 100 µM (inactive)
GI50 (HCC 2998): > 100 µM (inactive)
GI50 (SNB-78): > 100 µM (inactive)
GI50 (HCT-15): > 100 µM
GI50 (SW-620): > 100 µM (inactive)
GI50 (MOLT-4): > 100 µM (inactive)
GI50 (NCI-H226): > 100 µM (inactive)
GI50 (SN12C): > 100 µM (inactive)
GI50 (CAKI-1): > 100 µM (inactive)
